Results published in paper PMC10743537 (2023).

Test system: nicked decamer duplex 3 (DNA, duplex, PEG(6) tether between positions 5 and 6 (C10/G11 in paper numbering) and between positions 15 and 16 (C20/G1); nick between T5 (3' end, position 20) and G6 (5' end, position 1)) GTCGCGCGACAACGCGCGTT
Experiment: NMR diffusion (DOSY)
Conditions: 25 mM NaCl, 25 mM K3PO4; D2O buffer, pH 6.0, 10 °C; 0.60 mM each; 1:1 model assumed, self-association neglected

## CCc1c2c(nc3ccc(O)cc13)-c1cc3c(c(=O)n1[C@@H]2CN1CCCC1)COC(=O)[C@]3(O)CC
  Ka: 150 mM⁻¹

## CCc1c2c(nc3ccc(O)cc13)-c1cc3c(c(=O)n1[C@H]2CN1CCCC1)COC(=O)[C@]3(O)CC
  Ka: 76 mM⁻¹
